Data: patent publication EP4768489A1, “CYCLOBUTYL-CONTAINING COMPOUNDS” (Chia Tai Tianqing Pharmaceutical Group Co., Ltd., priority 2023, dated 2025)
Residue numbers refer to the chain shown, from its start.

Legend:
AR in VCaP cells = target: T1, AR in VCaP cells (Homo sapiens, UniProt P10275); experiment: Assay on degradation activity for AR in VCaP cells (HTRF human androgen receptor detection kit); format: cell-based; details: 24 h; for DC50: AR degradation; for Dmax: maximum degradation rate
T1 construct: Assay on degradation activity for AR in VCaP cells; endogenous in cells; host or cells: VCaP cells
T1 sequence (P10275 1-920): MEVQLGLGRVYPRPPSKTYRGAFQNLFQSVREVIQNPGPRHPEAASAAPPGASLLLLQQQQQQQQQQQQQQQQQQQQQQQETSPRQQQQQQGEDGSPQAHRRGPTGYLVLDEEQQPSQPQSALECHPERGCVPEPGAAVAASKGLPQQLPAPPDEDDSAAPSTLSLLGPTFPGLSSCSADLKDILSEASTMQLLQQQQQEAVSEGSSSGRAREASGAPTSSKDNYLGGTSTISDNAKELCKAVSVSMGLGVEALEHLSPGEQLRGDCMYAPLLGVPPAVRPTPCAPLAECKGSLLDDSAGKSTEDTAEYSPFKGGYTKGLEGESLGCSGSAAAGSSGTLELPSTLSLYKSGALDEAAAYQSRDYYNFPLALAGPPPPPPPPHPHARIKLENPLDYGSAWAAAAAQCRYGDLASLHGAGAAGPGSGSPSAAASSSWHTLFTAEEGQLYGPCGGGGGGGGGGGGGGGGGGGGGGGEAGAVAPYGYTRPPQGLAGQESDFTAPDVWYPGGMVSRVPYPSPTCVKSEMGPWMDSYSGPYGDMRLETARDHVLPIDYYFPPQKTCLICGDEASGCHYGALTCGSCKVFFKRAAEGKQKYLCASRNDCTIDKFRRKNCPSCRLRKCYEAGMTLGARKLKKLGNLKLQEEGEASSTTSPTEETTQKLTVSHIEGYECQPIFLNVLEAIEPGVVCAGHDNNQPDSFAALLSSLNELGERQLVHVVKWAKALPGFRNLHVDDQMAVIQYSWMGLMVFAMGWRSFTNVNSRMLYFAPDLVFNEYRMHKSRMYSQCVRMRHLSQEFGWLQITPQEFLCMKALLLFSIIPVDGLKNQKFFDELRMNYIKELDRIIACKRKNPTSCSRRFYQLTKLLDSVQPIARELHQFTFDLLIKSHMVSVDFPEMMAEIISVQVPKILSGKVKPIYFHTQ
Experimental: (§1) The detection was carried out using the HTRF HUMAN ANDROGEN RECEPTOR DETECTION KIT (cisbio, 64ANDRPEG), 4× Supplemented Lysis buffer was prepared using the Blocking reagent stock solution (100×) and Lysis buffer stock solution (4×), and 1× Supplemented Lysis buffer was prepared using the 4× Supplemented Lysis buffer and ddH2O. Premixed antibody solutions were prepared using Detection buffer, Androgen Receptor Eu Cryptate antibody, and Androgen Receptor d2 antibody.
The cells were cultured overnight in a cell incubator. […] After the cells were oscillated for 40 min at room temperature, 16 µL of the cell lysis buffer was added to a 384-well plate, the Premixed antibody solutions were added at 4 µL/well, and the mixture was left to stand at 25 °C for 2 h. […] Table 1. Degradation activity of compounds for AR in VCaP cells

[1] = target: T2, AR in MDA-PCA-2B (L702H\T878A) cells (Homo sapiens, UniProt P10275, L702H/T878A); experiment: Assay on degradation activity for AR in MDA-PCA-2B (L702H\T878A) cells (HTRF); format: cell-based; details: 24 h; for DC50: AR degradation; for Dmax: maximum degradation rate
T2 construct: Assay on degradation activity for AR in MDA-PCA-2B (L702H\T878A) cells; endogenous in cells; host or cells: MDA-PCA-2B cells
T2 sequence (P10275 1-920 L702H/T878A): T1 sequence (P10275 1-920) with L702H, T878A
Experimental: as §1
The cells were cultured overnight in a cell incubator. […] After the cells were oscillated for 40 min at room temperature, 16 µL of the cell lysis buffer was added to a 384-well plate, the Premixed antibody solutions were added at 4 µL/well, and the mixture was left to stand at 25 °C for 2 h. […]

[2] = In vitro liver microsome stability, human; format: in vitro ADME; details: human liver microsomes 0.5 mg/mL, 37 °C, NADPH
Experimental: Liver microsome incubation samples were prepared by mixing a PBS buffer (pH 7.4), a liver microsome solution (0.5 mg/mL), a test compound, and an NADPH + MgCl2 solution, followed by incubation at 37 °C and 300 rpm for 1 h. Zero-hour samples were prepared by mixing a PBS buffer (pH 7.4), a liver microsome solution (0.5 mg/mL), and a test compound. […]

COc1cc(O[C@H]2C(C)(C)[C@H](NC(=O)c3ccc(N4CCC(CN5CCc6c(ccc7c(C8CCC(=O)NC8=O)noc67)C5)CC4)cc3)C2(C)C)ccc1C#N (stereo partly drawn) [Compound 1]
DC50 (AR in VCaP cells): < 5 nM | Dmax (AR in VCaP cells): > 75% | DC50 [1]: < 500 nM | Dmax [1]: > 70% | HLM (human) Remaining amount at 60 min % [2]: >70%

COc1cc(O[C@H]2C(C)(C)[C@H](NC(=O)c3ccc(N4CCC(CN5CCc6c(ccc7c(C8CCC(=O)NC8=O)noc67)C5)CC4)nc3)C2(C)C)ccc1C#N (stereo partly drawn) [Compound 3]
DC50 (AR in VCaP cells): < 5 nM | Dmax (AR in VCaP cells): > 75% | DC50 [1]: < 500 nM | Dmax [1]: > 70% | HLM (human) Remaining amount at 60 min % [2]: >70%

COc1cc(O[C@H]2C(C)(C)[C@H](NC(=O)c3cnc(N4CCC(CN5CCc6c(ccc7c(C8CCC(=O)NC8=O)noc67)C5)CC4)nc3)C2(C)C)ccc1C#N (stereo partly drawn) [Compound 4]
DC50 (AR in VCaP cells): < 5 nM | Dmax (AR in VCaP cells): > 75% | DC50 [1]: < 500 nM | Dmax [1]: > 70% | HLM (human) Remaining amount at 60 min % [2]: >70%

COc1cc(O[C@H]2C(C)(C)[C@H](NC(=O)c3cnc(N4CCC(CN5CCc6c(ccc7c(C8CCC(=O)NC8=O)noc67)C5)CC4)cn3)C2(C)C)ccc1C#N (stereo partly drawn) [Compound 5]
DC50 (AR in VCaP cells): < 5 nM | Dmax (AR in VCaP cells): > 75% | DC50 [1]: < 500 nM | Dmax [1]: > 70% | HLM (human) Remaining amount at 60 min % [2]: >70%

COc1cc(O[C@H]2C(C)(C)[C@H](NC(=O)c3ccc(N4CCC(CN5CCc6c(ccc7c(C8CCC(=O)NC8=O)noc67)C5)CC4)nn3)C2(C)C)ccc1C#N (stereo partly drawn) [Compound 6]
DC50 (AR in VCaP cells): < 5 nM | Dmax (AR in VCaP cells): > 75% | DC50 [1]: < 500 nM | Dmax [1]: > 70%
